# Source: patent publication US5510346A, “4-heteroaryl-1,3-benzodiazepines and 2-substituted-gamma-(heteroaryl)benzeneethanamines” (Hoechst Marion Roussel, Inc., priority 1991, dated 1996)
# Columns and labels:
# [1] = test system: N-methyl-D-aspartic acid (NMDA)-induced seizures; assay: N-Methyl-D,L-Aspartic Acid Induced Seizure Assay (NMDA protection); type: in vivo; settings: male Swiss Webster mice, ip; N-methyl-D,L-aspartic acid 350 mg/kg challenge; absence of clonic seizures during 30 minute observation
# Protocol: In this assay, male Swiss Webster mice (Charles River), 18-25 grams are used. Animals are ordered at 33 to 36 days of age and can be used for 8 days after arrival. They are housed for at least 24 hours in a climate controlled animal colony with food and water available ad libimm. On the day of testing, animals are brought to the laboratory and randomly assigned to groups. N-Methyl-D,L-aspartic acid (350 mg) is dissolved in 10 ml of saline and mixed thoroughly with a homogenizer for 1-2 minutes. Test compounds are prepared in distilled water and, if insoluable, a suitable surfactant is added. For a primary screen the test compound is administered at 60 mg/kg, ip (10 ml/kg), to groups of ten mice, 30 minutes prior to challenge with N-methyl-D,L-aspartic acid (350 mg/kg, […]). After N-Methyl-D,L-aspartic acid administration animals are placed individually in clear plastic cyclinders (12"×5.5"×1/4") and then observed for clonic seizures. N-methyl-D,L-aspartic acid will produce clonic seizures, and sometimes tonic seizures and death, in vehicle control animals.
# A clonic convulsion is defined as a single episode of clonic spasms of a least a 3 second duration. […]
# Data is calculated by the method of J. T. Litchfield, Jr. and F. Wileoxon. […]
# The normalized percent protection is calculated using the following formula: [formula]
# [2] = test system: Geller Conflict Paradigm in Rats; assay: Geller Conflict Paradigm in Rats (anxiolytic activity); type: in vivo; settings: i.p.
# Source text: The intraperitoneal (i.p.) dosages at which the following compounds show anxiolytic activity are: […]
compound,measurement,setting,value
2-Amino-α-(3-methyl-3-thienyl)benzeneethanamine,NMDA Protection ED50,[1],19.0 mg/kg
CCNC(Cc1ccccc1N)c1sccc1C.Cl.Cl (stereo not drawn) [2-Amino-N-ethyl-α-(3-methyl-2-thienyl)benzeneethanamine dihydrochloride],Anti-Conflict Response % Change Compared to Control,[2]; 1 mg/kg,+100%
same,Anti-Conflict Response % Change Compared to Control,[2]; 5 mg/kg,+70%
"CN1C(=O)CN=C(c2ccccc2)c2cc(Cl)ccc21 [Diazepam, reference compound]",Anti-Conflict Response % Change Compared to Control,[2]; 10 mg/kg,+180%
same,Anti-Conflict Response % Change Compared to Control,[2]; 20 mg/kg,+630%
